Values joined by “and” are separate entries in the source; they are usually repeats but may differ in a detail not shown here. Equal values may be shown once.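 48-hour exposure; five concentrations; linearly interpolated endpoints. Here, GI50 denotes the concentration required for 50% inhibition of growth. TGI: total growth inhibition.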
Experiments:
Experiment in all cases: growth of human tumour cells (NCI), 48 h
HL-60(TB) leukemia = test system: HL-60(TB) leukemia
NCI-H226 lung = test system: NCI-H226 lung
MDA-MB-435 = test system: MDA-MB-435
T-47D breast = test system: T-47D breast
K-562 leukemia = test system: K-562 leukemia
ACHN renal = test system: ACHN renal
NCI/ADR-RES ovarian = test system: NCI/ADR-RES ovarian
SNB-19 CNS = test system: SNB-19 CNS
LOX IMVI melanoma = test system: LOX IMVI melanoma
U251 CNS = test system: U251 CNS
CAKI-1 renal = test system: CAKI-1 renal
SF-539 CNS = test system: SF-539 CNS
SK-MEL-5 melanoma = test system: SK-MEL-5 melanoma

| SMILES | TGI (HL-60(TB) leukemia) | TGI (NCI-H226 lung) | TGI (MDA-MB-435) | TGI (T-47D breast) | TGI (K-562 leukemia) | TGI (ACHN renal) | TGI (NCI/ADR-RES ovarian) | TGI (SNB-19 CNS) | TGI (LOX IMVI melanoma) | TGI (U251 CNS) | TGI (CAKI-1 renal) | TGI (SF-539 CNS) | TGI (SK-MEL-5 melanoma) | GI50 (HL-60(TB) leukemia) | GI50 (SNB-19 CNS) | GI50 (LOX IMVI melanoma) | GI50 (SF-539 CNS) | GI50 (SK-MEL-5 melanoma) |
| --- | --- | --- | --- | --- | --- | --- | --- | --- | --- | --- | --- | --- | --- | --- | --- | --- | --- | --- |
| COc1ccc2c(c1)CC[C@@H]1[C@@H]2CC[C@]2(C)/C(=N/OCCN3CCCC3)CC[C@@H]12 | 5.53 µM | 5.26 µM | 2.43 µM | 9.64 µM | 2.58 µM | 15.5 µM | 28.7 µM | 28.1 µM | 3.19 µM | 10.4 µM | 3.42 µM | 3.92 µM | 3.41 µM |  |  |  |  |  |
| N/C(=N\N=C\c1cc2ccccc2s1)c1cnccn1 | > 100 µM | > 100 µM | > 100 µM | > 100 µM | > 100 µM | > 100 µM | > 100 µM | > 100 µM | > 100 µM | > 100 µM | > 100 µM | > 100 µM | > 100 µM |  |  |  |  |  |
| OC1(c2ccccc2)CC2CCC(C1)N2CCCC(O)(c1ccccc1)c1ccccc1 (stereo not drawn) | > 100 µM | 29 µM | 24.8 µM | 50.3 µM | 37.8 µM | 31.5 µM | 39.1 µM | 42.9 µM | 22.4 µM | 28.7 µM | 27.1 µM | 16.8 µM | 10.2 µM |  |  |  |  |  |
| CN1C(=O)N(C)C2(CCN(CC(CC3OCCO3)c3ccc(F)cc3)CC2)C1=O (stereo not drawn) | > 100 µM | > 100 µM | > 100 µM | > 100 µM | > 100 µM | > 100 µM | > 100 µM | > 100 µM | > 100 µM | > 100 µM | > 100 µM | > 100 µM | > 100 µM |  |  |  |  |  |
| O=[N+]([O-])c1ccc(CSc2nn(Cc3ccc([N+](=O)[O-])cc3)cc3ncnc2-3)cc1 | 46.4 µM | > 100 µM | 74.7 µM | > 100 µM | > 100 µM | > 100 µM | > 100 µM |  | > 100 µM |  | > 100 µM | 95.5 µM | > 100 µM |  |  |  |  |  |
| CCN(CC)CCNc1c2ccccc2nc2cccc([N+](=O)[O-])c12 | 0.175 µM | 0.0553 µM | 0.00323 µM | 0.0661 µM | 0.121 µM | 0.0184 µM and 0.0468 µM | 0.034 µM |  |  | 0.0775 µM | 0.0254 µM and 0.0721 µM | 0.0472 µM and 0.251 µM | 0.0173 µM and 0.0258 µM | 0.0104 µM | 0.0166 µM | 0.0363 µM | 0.107 µM | 0.0112 µM |
| O=[N+]([O-])c1cc(Br)cc2cc(Cl)cnc12 | > 100 µM | > 100 µM | > 100 µM | > 100 µM | > 100 µM | > 100 µM | > 100 µM | > 100 µM | > 100 µM | > 100 µM | > 100 µM | > 100 µM | > 100 µM |  |  |  |  |  |
| CCCNC1=C2C[C@@H](C)C[C@@H](OC)[C@@H](OC(=O)CCCN)[C@H](C)/C=C(\C)[C@@H](OC(N)=O)[C@H](OC)/C=C\C=C(/C)C(=O)NC(=CC1=O)C2=O | 8.01 µM | 39.8 µM | 32.2 µM | 28.5 µM | > 20.9 µM | 37.6 µM | 86.2 µM | 29.7 µM | > 48.3 µM | > 35 µM | 38.5 µM | 39.9 µM | 24.5 µM |  |  |  |  |  |
| O=C1CC(c2ccc(Cl)cc2)C2(C(=O)NC(=S)NC2=O)C(c2ccc(Cl)cc2)C1 (stereo not drawn) | 57.2 µM | 66.9 µM | 39.9 µM | 74.1 µM | 74.1 µM | > 100 µM | 52 µM | 36.6 µM | > 100 µM | 79.7 µM | 74.6 µM | 40.9 µM | 33.1 µM |  |  |  |  |  |
| CC(=O)Nc1ccc(NC(=O)CC(=O)Nc2ccc(NC(C)=O)cc2)cc1 | > 100 µM | > 100 µM | > 100 µM | > 100 µM | > 100 µM | > 100 µM | > 100 µM | > 100 µM | > 100 µM | > 100 µM | > 100 µM | > 100 µM | > 100 µM |  |  |  |  |  |
| c1ccc(-c2cnc(SC(c3ccccc3)c3ccccc3)[nH]2)cc1 | 40.7 µM | 67.3 µM | > 100 µM | 54.7 µM | > 100 µM | > 100 µM | 85.4 µM | > 100 µM | 59 µM | > 100 µM | > 100 µM | > 100 µM | 27 µM |  |  |  |  |  |
| C/C=C1\CC(C(=O)OCC)CCCCCCC1=O (stereo not drawn) | > 100 µM | > 100 µM | > 100 µM | > 100 µM |  | > 100 µM | > 100 µM | > 100 µM | > 100 µM | > 100 µM | > 100 µM | > 100 µM | > 100 µM |  |  |  |  |  |
| Cc1nc2cn3c(c2c(=O)[nH]1)CCCCC3 | > 100 µM | > 100 µM | > 100 µM | > 100 µM | > 100 µM | > 100 µM | > 100 µM | > 100 µM | > 100 µM | > 100 µM | > 100 µM | > 100 µM | > 100 µM |  |  |  |  |  |
| C=CCn1c(-c2cc(C(C)(C)C)c(O)c(C(C)(C)C)c2)cs/c1=N\C(P(=O)(O)O)P(=O)(O)O | > 100 µM | > 100 µM | > 100 µM | > 100 µM | > 100 µM | > 100 µM | > 100 µM | > 100 µM |  | > 100 µM | > 100 µM | > 100 µM |  |  |  |  |  |  |
| CC(NC(=O)Cc1ccc(OP(=O)(OCc2ccc([N+](=O)[O-])o2)N(C)CCCCCl)cc1)c1ccc(OCC2CCCCC2)c(C(N)=O)c1 (stereo not drawn) | 5.06 µM | 7.09 µM | 3.95 µM | 3.84 µM | 9.23 µM | 37.1 µM | 94.3 µM | 22.1 µM | 3.28 µM | 5.28 µM | 20.7 µM | 4.09 µM | 2.97 µM |  |  |  |  |  |
| COC(=O)C1OC(O[C@H]2CC[C@]3(C)[C@H]4CC=C5[C@@H]6CC(C)(C)CC[C@]6(C(=O)OC)CC[C@@]5(C)[C@]4(C)CC[C@H]3C2(C)C)C(O)C(O)C1O (stereo partly drawn) | 36.7 µM | 37 µM | 30 µM | 40.9 µM | 46.3 µM | 24.2 µM | 36.1 µM | 31.1 µM | 20 µM | 25.1 µM | 21.8 µM |  | 32.2 µM |  |  |  |  |  |
| Nc1nc(Cl)cc(NCC2(CO)CCCCC2)n1 | > 100 µM | > 100 µM | > 100 µM | > 100 µM | > 100 µM | > 100 µM | > 100 µM | > 100 µM | > 100 µM | > 100 µM | > 100 µM | > 100 µM | > 100 µM |  |  |  |  |  |

— PubChem BioAssay (NCI)
